Counter-ions that a name gives are not always drawn.
Key:
[1] = tested on: HSV I / herpes labialis (cold sores); experiment: Case reports: herpes labialis (cold sores) treated with bupropion; assay type: in vivo, humans
Description: […] They have approximately 1 episode per month related to menstrual periods. This has been occurring for the last 6 years and has lasted for at least a week of every month. The severity varied according to […] general state of health and stress levels. The outbreaks lasted at least one week and have made a significant impact on their psychological state. They have not been on systemic therapy.
The third case was patient five, a entrepreneur. They have a coffee shop chain. They are thus very visible and they are very self-conscious of even minor blemishes on their face. They have mild herpes labialis (cold sores), which occurs approximately 5 times a year. They have taken intermittent acyelovir and has even considered continuous acyclovir, because of their image.
[…] They had been paying for acyclovir privately, despite the cost, because of their wish to suppress their frequent and unsightly lesions. […] An attack was treated within 24 hours on the two agents.
[…] This involved the nares, upper and lower lips bilaterally. […] Their partner also developed scarlet fever as well. […] It should be noted that this patient is usually very intolerant of medications and tends to vomit easily.
Her normal herpes labialis lasted between 5 and 7 days.

[2] = tested on: neuronal uptake of dopamine (DA); details: cited from earlier work
[3] = tested on: genital Herpes Simplex viral infection; experiment: Case reports: recurrent genital herpes treated with bupropion; assay type: in vivo, humans
Description: There were 5-6 recurrences per year. […] The fourth case was patient one, a student with extensive genital herpes. They have had 4 attacks thus far, which have been treated initially with acyclovir and then later with famciclovix. The normal duration of these attacks on these agents was 5-7 days. They were unable to attend classes and took a further 2 weeks before they felt normal. A big feature of their illness is the severe fatigue that precedes and follows their attacks. […] They had not developed any post-[…] fatigue either. They later used a further 2 day course when they felt tingling.

[4] = tested on: herpes virus; experiment: Overall assessment of the case series against other anti-viral agents; assay type: in vivo, humans; details: treatment and prevention of infections caused by the herpes virus
Description: The physician conducting the above trials has reported that the results thus far have been beyond expectation. They are commented that “not only has there been a success from a completely unlikely agent, but there has also been a success beyond that achieved by the well-established anti-viral agents.”

[5] = tested on: neuronal uptake of noradrenahne (NA); details: cited from earlier work
[6] = tested on: herpes simplex II; experiment: Case report: recurrent buttock herpes simplex II; assay type: in vivo, humans; details: Example 6, case two
Description: The sixth case was patient two, a reporter. […] This was given for recurrent buttock herpes simplex II, This was ceased and after 1 year, the hypertension and renal impairment reverted to normal.

[7] = tested on: monoamine oxidase; details: cited from earlier work
[8] = Side effects observed in the treated cases; assay type: in vivo, humans
Description: The sixth case was patient two, a reporter. […] This was given for recurrent buttock herpes simplex II, This was ceased and after 1 year, the hypertension and renal impairment reverted to normal. […] This involved the nares, upper and lower lips bilaterally. Even after topical acyclovir, the course of the illness was 2 weeks of significant outbreak. […] Their partner also developed scarlet fever as well. […] It should be noted that this patient is usually very intolerant of medications and tends to vomit easily.

[9] = tested on: HSV I / herpes labialis (cold sores); experiment: Case reports: herpes labialis (cold sores) treated with bupropion; assay type: in vivo, humans; remark: listed apart in the source
[10] = Example 1, case gamma, 4 doses of 150 mg over 2 days
[11] = Example 4, case one, 300 mg twice daily for 2 days

## CC(NC(C)(C)C)C(=O)c1cccc(Cl)c1 (racemic) [bupropion, (±)-1-(3-chlorophenyl)-2-[(1,1-dimethylethyl)-amino)-1-propanone hydrochloride]
[1]; Example 2, case four, HSV I cold sores, 300 mg twice daily for 2 days from day 2 of outbreak
  complete resolution of lesions (day of outbreak): ≤ 3 days
[1]; Example 2, case four, similar dosage
  minor recurrence one week later: aborted by a similar dosage within the first day
[1]; Example 3, case five, 2 tablets of 150 mg when they feel the tingling
  eruptions: has not had an eruption in the last 3 months
[1]; Example 5, case beta, 150 mg every 12 hours for 2 days, two episodes
  outbreak after tingling of the lip: No outbreak of herpes labialis occurred
[1]; Example 7, case alpha
  lesion by day 5: hardly noticeable
  time after which the lesion started disappearing: 3 days
[1]; Example 7, case three, within 36 hours of taking 300 mg
  progression of lesions: did not progress from their initial lesion
[2]
  inhibition of neuronal uptake of dopamine: relatively weak inhibitor
[3]; Example 1, case gamma, first use of bupropion
  time until the attack was aborted: ≤ 2 days
[3]; [10]
  outcome of an attack about to commence: aborts the attack completely, or reduces it to a small crop of lesions
  time to complete healing of the small crop of lesions: ≤ 48 h
[3]; Example 1, case gamma, over one year
  recurrence since commencing the regime: There has not been a single significant recurrence
[3]; [11]
  lesions after treatment: lesions had cleared completely
  post-viraemia fatigue: had not developed any post-viraemia fatigue
[3]; Example 4, case one, further 2 day course
  eruptions after a further course at tingling: did not develop any eruptions
[4]
  comparison with other anti-viral agents such as acydovir and famciclovir: superior to many other anti-viral agents
[5]
  inhibition of neuronal uptake of noradrenaline: relatively weak inhibitor
[6]; taken at onset of pre-outbreak symptoms
  eruptions: has not had an eruption since
[7]
  inhibition of monoamine oxidase: does not inhibit
[8]; Example 7, case alpha
  concurrent scarlet fever: did not worsen
[8]; Example 7, case three, usually very intolerant of medications
  side effects: No side effects were noticed
[9]; Example 8, 150 mg twice daily for 2 days
  time until the lesion had dried out: ≤ 24 h
[9]; Example 8, 150 mg twice daily for 2 days, after drying out
  further time until the lesion was scabbing: ≤ 12 h
[9]; Example 8, 150 mg twice daily for 2 days, after scabbing
  time to complete resolution (later): 3 days

## CC(=O)OCC(CCn1cnc2cnc(N)nc21)COC(C)=O [Famciclovir]
[6]; continuous therapy
  interval between minor outbreaks (approximately once every): 2-3 months
  suppression of disease: successfully suppressed their disease

## Nc1nc2c(ncn2COCCO)c(=O)[nH]1 [acyclovir]
[1]; Example 3, case five, mild herpes labialis, taken with the tingling
  duration of attacks: 3 days
[1]; Example 3, case five, taken with the tingling
  severity of attacks: barely detectable
[1]; Example 5, case beta, recurrent herpes labialis
  lesions during suppressive therapy: breakthrough lesions
[1]; Example 7, case three, severe herpes labialis, topical
  course of the illness (significant outbreak): 2 weeks
[3]; Example 1, case gamma
  effect in aborting the attacks: partially effective
[3]; Example 1, case gamma, recurrent genital Herpes Simplex, reduced from 2 weeks
  duration of the attacks: 5 to 7 days
[8]; Example 6, case two, given for recurrent buttock herpes simplex II, reverted to normal 1 year after ceasing
  adverse effects: developed hypertension and mild renal impairment
[9]; Example 8, medical receptionist, herpes labialis, topical, in the past
  effect of topical therapy: unhelpful
